From patent publication US6852759B2, “Process for the synthesis of trans-alkenoic acids, use thereof” (priority 2002, dated 2005)
Marks after values point to notes of the source that are not given here.

What was measured:
[1] = system: D-Galactosamine (Gal N) induced hepatic injury in rats; experiment: Hepatoprotective activity, curative study, D-Galactosamine; format: in vivo
[2] = system: acetaminophen (APAP) in mice; experiment: Hepatoprotective activity, prophylactic study, acetaminophen (APAP) after diethyl-ether; format: in vivo
[3] = system: alcohol induced hepatic damage in rats; experiment: Hepatoprotective activity against alcohol induced hepatic damage (serum and hepatic parameters); format: in vivo; conditions: for Hepatic Protein % change: only change and not protection
[4] = system: CCl4 administration in mice; experiment: Hexobarbitone sleep time after CCl4 administration; format: in vivo
[5] = system: CCl4, Paracetamol, Galactosamine and alcohol as hepatotoxins; experiment: Antihepatotoxicity/hepato-protective activity in vivo, overall comparison with silymarin; conditions: prophylactic and curative aspects in vivo
[6] = 12.5 mg/kg p.o. + Gal N, curative
[7] = 25 mg/kg p.o. + Gal N, curative
[8] = 50 mg/kg p.o. + Gal N, curative
[9] = TCA alone 50 mg/kg p.o., no Gal N, curative study
[10] = 12.5 mg/kg p.o. + APAP, prophylactic
[11] = 25 mg/kg p.o. + APAP, prophylactic
[12] = 50 mg/kg p.o. + APAP, prophylactic
[13] = 100 mg/kg p.o. + APAP, prophylactic
[14] = TCA alone 100 mg/kg p.o., no APAP, prophylactic study
[15] = 12.5 mg/kg p.o. 1 h before CCl4, mice
[16] = 25 mg/kg p.o. 1 h before CCl4, mice
[17] = 50 mg/kg p.o. 1 h before CCl4, mice
[18] = 100 mg/kg p.o. 1 h before CCl4, mice

With `CCCCCCCC/C=C/CCCCCCCCCCCCCC(=O)O` [TCA, t-Tetracos-15-enoic acid] the “Serum ALP” value [1, 6] was 46.03 ± 2.35^NS μmole of p-niotrophenol formed/min/L, the “Serum ALP, hepatoprotective activity percent” value [1, 6] was “(43.65 ± 6.96) percent” and the “Serum Bilirubin” value [1, 6] was 0.56 ± 0.03 mg %. For the same molecule, the “Serum Bilirubin, hepatoprotective activity percent” value [1, 6] was “(46.75 ± 3.74) percent”, the “Serum GOT” value [1, 6] was 494.53 ± 41.13 Units and the “Serum GOT, hepatoprotective activity percent” value [1, 6] was “(34.12 ± 6.65) percent”. The “Serum GPT” value [1, 6] was 578.14 ± 57.37 Units, the “Serum GPT, hepatoprotective activity percent” value [1, 6] was “(40.40 ± 7.08) percent” and the “Serum Triglycerides” value [1, 6] was 11.85 ± 0.75^NS mg %. For the same molecule, the “Serum Triglycerides, hepatoprotective activity percent” value [1, 6] was “(32.78 ± 8.37) percent”, the “Serum ALP” value [1, 7] was 38.87 ± 2.62 μmole of p-niotrophenol formed/min/L and the “Serum ALP, hepatoprotective activity percent” value [1, 7] was “(64.83 ± 7.74) percent”. For the same molecule, the “Serum Bilirubin” value [1, 7] was 0.46 ± 0.03 mg %, the “Serum Bilirubin, hepatoprotective activity percent” value [1, 7] was “(59.74 ± 4.04) percent” and the “Serum GOT” value [1, 7] was 449.93 ± 31.58 Units. For the same molecule, the “Serum GOT, hepatoprotective activity percent” value [1, 7] was “(41.37 ± 5.10) percent”, the “Serum GPT” value [1, 7] was 518.66 ± 42.64 Units and the “Serum GPT, hepatoprotective activity percent” value [1, 7] was “(47.74 ± 5.26) percent”. The “Serum Triglycerides” value [1, 7] was 10.48 ± 0.91^NS mg %, the “Serum Triglycerides, hepatoprotective activity percent” value [1, 7] was “(46.11 ± 9.77) percent” and the “Serum ALP” value [1, 8] was 36.94 ± 1.87 μmole of p-niotrophenol formed/min/L. The “Serum ALP, hepatoprotective activity percent” value [1, 8] was “(71.88 ± 5.54) percent”, the “Serum Bilirubin” value [1, 8] was 0.35 ± 0.02 mg % and the “Serum Bilirubin, hepatoprotective activity percent” value [1, 8] was “(73.16 ± 2.95) percent”. For the same molecule, the “Serum GOT” value [1, 8] was 391.66 ± 29.53 Units, the “Serum GOT, hepatoprotective activity percent” value [1, 8] was “(50.76 ± 4.78) percent” and the “Serum GPT” value [1, 8] was 412.17 ± 31.17 Units. The “Serum GPT, hepatoprotective activity percent” value [1, 8] was “(60.88 ± 3.85) percent”, the “Serum Triglycerides” value [1, 8] was 9.23 ± 0.59 mg % and the “Serum Triglycerides, hepatoprotective activity percent” value [1, 8] was “(61.84 ± 6.59) percent”. For the same molecule, the “Serum ALP” value [1, 9] was 24.45 ± 2.76 μmole of p-niotrophenol formed/min/L, the “Serum Bilirubin” value [1, 9] was 0.19 ± 0.02 mg % and the “Serum GOT” value [1, 9] was 91.07 ± 10.50 Units. For the same molecule, the “Serum GPT” value [1, 9] was 105.02 ± 18.74 Units, the “Serum Triglycerides” value [1, 9] was 6.44 ± 0.38 mg % and the “Serum ALP” value [2, 10] was 50.41 ± 3.07 μmole of p-nitrophenel formed/min/L. For the same molecule, the “Serum ALP, hepatoprotective activity percent” value [2, 10] was “(21.27 ± 9.50) percent”, the “Serum GOT” value [2, 10] was 1079.43 ± 98.66 Units and the “Serum GOT, hepatoprotective activity percent” value [2, 10] was “(25.66 ± 7.72) percent”. The “Serum GPT” value [2, 10] was 2182.19 ± 137.86 Units, the “Serum GPT, hepatoprotective activity percent” value [2, 10] was “(22.86 ± 5.31) percent” and the “Serum Triglycerides” value [2, 10] was 14.72 ± 0.68 mg %. The “Serum Triglycerides, hepatoprotective activity percent” value [2, 10] was “(28.28 ± 8.27) percent”, the “Serum ALP” value [2, 11] was 46.23 ± 1.73 μmole of p-nitrophenel formed/min/L and the “Serum ALP, hepatoprotective activity percent” value [2, 11] was “(34.15 ± 5.39) percent”. The “Serum GOT” value [2, 11] was 880.10 ± 60.29 Units, the “Serum GOT, hepatoprotective activity percent” value [2, 11] was “(41.26 ± 4.72) percent” and the “Serum GPT” value [2, 11] was 1696.53 ± 48.31 Units. The “Serum GPT, hepatoprotective activity percent” value [2, 11] was “(41.57 ± 1.86) percent”, the “Serum Triglycerides” value [2, 11] was 13.47 ± 0.89 mg % and the “Serum Triglycerides, hepatoprotective activity percent” value [2, 11] was “(43.32 ± 10.80) percent”. For the same molecule, the “Serum ALP” value [2, 12] was 41.44 ± 1.27 μmole of p-nitrophenel formed/min/L, the “Serum ALP, hepatoprotective activity percent” value [2, 12] was “(49.04 ± 3.94) percent” and the “Serum GOT” value [2, 12] was 619.36 ± 88.89 Units. The “Serum GOT, hepatoprotective activity percent” value [2, 12] was “(61.67 ± 6.96) percent”, the “Serum GPT” value [2, 12] was 1066.99 ± 118.14 Units and the “Serum GPT, hepatoprotective activity percent” value [2, 12] was “(65.82 ± 4.55) percent”. For the same molecule, the “Serum Triglycerides” value [2, 12] was 12.34 ± 0.85 mg %, the “Serum Triglycerides, hepatoprotective activity percent” value [2, 12] was “(56.84 ± 10.23) percent” and the “Serum ALP” value [2, 13] was 35.08 ± 2.18 μmole of p-nitrophenel formed/min/L. The “Serum ALP, hepatoprotective activity percent” value [2, 13] was “(68.82 ± 6.78) percent”, the “Serum GOT” value [2, 13] was 310.53 ± 45.32 Units and the “Serum GOT, hepatoprotective activity percent” value [2, 13] was “(85.85 ± 4.25) percent”. For the same molecule, the “Serum GPT” value [2, 13] was 539.60 ± 51.65 Units, the “Serum GPT, hepatoprotective activity percent” value [2, 13] was “(86.13 ± 1.99) percent” and the “Serum Triglycerides” value [2, 13] was 10.87 ± 0.69 mg %. The “Serum Triglycerides, hepatoprotective activity percent” value [2, 13] was “(74.48 ± 8.37) percent”, the “Serum ALP” value [2, 14] was 27.15 ± 2.92 μmole of p-nitrophenel formed/min/L and the “Serum GOT” value [2, 14] was 106.86 ± 30.15 Units. The “Serum GPT” value [2, 14] was 146.00 ± 32.15 Units, the “Serum Triglycerides” value [2, 14] was 7.77 ± 0.56 mg % and the “Hepatic G-6-Pase” value ([3]; 25 mg/kg + Alcohol) was 2.19 ± 0.465 Units/g. For the same molecule, the “Hepatic G-6-Pase % Protection” value ([3]; 25 mg/kg + Alcohol) was 73%, the “Hepatic Protein” value ([3]; 25 mg/kg + Alcohol) was 172 ± 20.430 Mg/g and the “Hepatic SDII” value ([3]; 25 mg/kg + Alcohol) was 7.79 ± 0.272 Units/G. The “Hepatic SDII % Protection” value ([3]; 25 mg/kg + Alcohol) was 14%, the “Hepatic TG” value ([3]; 25 mg/kg + Alcohol) was 14.75 ± 0.60 Mg/g and the “Hepatic TG % change” value ([3]; 25 mg/kg + Alcohol) was −3.10%. The “Hepatic Protein % change” value ([3]; 25 mg/kg + Alcohol) was −3.9%, the ALF ([3]; 25 mg/kg + Alcohol, serum) was 16.00 ± 2.04 U/I and the “ALF % Protection” value ([3]; 25 mg/kg + Alcohol, serum) was 80.00%. The GGT ([3]; 25 mg/kg + Alcohol, serum) was 1.90 ± 0.447 IU/I, the “GGT % Protection” value ([3]; 25 mg/kg + Alcohol, serum) was 63.00% and the SGOT ([3]; 25 mg/kg + Alcohol, serum) was 310.00 ± 30.36**^β U/I. For the same molecule, the “SGOT % Protection” value ([3]; 25 mg/kg + Alcohol, serum) was 77.29%, the SGPT ([3]; 25 mg/kg + Alcohol, serum) was 234.00 ± 8.80**^β U/I and the “SGPT % Protection” value ([3]; 25 mg/kg + Alcohol, serum) was 57.33%. The “Serum Protein” value ([3]; 25 mg/kg + Alcohol, serum) was 16.90 ± 3.38 G/dl, the “Serum Protein % Protection” value ([3]; 25 mg/kg + Alcohol, serum) was 44.40% and the “Hepatic G-6-Pase” value ([3]; 50 mg/kg + Alcohol) was 2.20 ± 2.223 Units/g. The “Hepatic G-6-Pase % Protection” value ([3]; 50 mg/kg + Alcohol) was 75%, the “Hepatic Protein” value ([3]; 50 mg/kg + Alcohol) was 174 ± 2.11 Mg/g and the “Hepatic SDII” value ([3]; 50 mg/kg + Alcohol) was 8.24 ± 0.390 Units/G. For the same molecule, the “Hepatic SDII % Protection” value ([3]; 50 mg/kg + Alcohol) was 43%, the “Hepatic TG” value ([3]; 50 mg/kg + Alcohol) was 15.44 ± 1.073 Mg/g and the “Hepatic TG % change” value ([3]; 50 mg/kg + Alcohol) was 1.40%. The “Hepatic Protein % change” value ([3]; 50 mg/kg + Alcohol) was −2.80%, the ALF ([3]; 50 mg/kg + Alcohol, serum) was 14.60 ± 2.82***^β U/I and the “ALF % Protection” value ([3]; 50 mg/kg + Alcohol, serum) was 95.00%. For the same molecule, the GGT ([3]; 50 mg/kg + Alcohol, serum) was 1.54 ± 0.128 IU/I, the “GGT % Protection” value ([3]; 50 mg/kg + Alcohol, serum) was 90.00% and the SGOT ([3]; 50 mg/kg + Alcohol, serum) was 295.00 ± 34.39**^β U/I. For the same molecule, the “SGOT % Protection” value ([3]; 50 mg/kg + Alcohol, serum) was 101.09%, the “SGPT % Protection” value ([3]; 50 mg/kg + Alcohol, serum) was 73.86% and the “Serum Protein” value ([3]; 50 mg/kg + Alcohol, serum) was 12.60 ± 3.09 G/dl. The “Serum Protein % Protection” value ([3]; 50 mg/kg + Alcohol, serum) was 7.70%, the “Hexobarbitone Hepatoprotection” value [4, 15] was 35.55 ± 5.78% and the “Hexobarbitone Sleeping time” value [4, 15] was 44.16 ± 1.87*^c min. The “Hexobarbitone Hepatoprotection” value [4, 16] was 55.14 ± 7.16%, the “Hexobarbitone Sleeping time” value [4, 16] was 37.83 ± 2.31**^c min and the “Hexobarbitone Hepatoprotection” value [4, 17] was 74.21 ± 6.27%. The “Hexobarbitone Sleeping time” value [4, 17] was 31.66 ± 2.31**^c min, the “Hexobarbitone Hepatoprotection” value [4, 18] was 85.04 ± 7.12% and the “Hexobarbitone Sleeping time” value [4, 18] was 28.16 ± 2.30**^c min. The “Hexobarbitone Sleeping time” value ([4]; TCA alone 100 mg/kg p.o., no CCl4, mice) was 21.85 ± 1.34 min and the “antihepatotoxicity/hepato-protective activity compared with silymarin” value [5] was “better protection and reversal of biochemical parameters better then those obtained with silymarin”.
